Measured values: patent US8207321B2, “Method of obtaining idolocarbazoles using biosynthetic rebeccamycin genes” (Universidad De Oviedo, priority 2001, dated 2012)

How the values were obtained:
Micrococcus luteus = details: cited from earlier work
S. albus J1074 = assay: Growth inhibition of Streptomyces spp.; type: cell-based, Streptomyces albus
S. albus J1074/pKC505 = assay: Paper disc growth inhibition by exogenously added rebeccamycin, control strain; type: cell-based, Streptomyces albus; details: 100 μg rebeccamycin on paper disc, Bennett's agar, 28° C. for 4 days
Method: (§1) Therefore, cosmids 14E8 and 17A12, which conferred the ability to produce rebeccamycin, should also confer resistance to rebeccamycin. In order to confirm this point, we studied the effect of exogenously added rebeccamycin on the growth of S. albus J1074/14E8 and control strain S. albus J1074/pKC505. For this purpose, spores of each strain were used to inoculate plates of Bennett's agar (Kieser et al. Practical Streptomyces genetics, The John Innes Foundation, Norwich, UK, 2000) containing 25 μg/ml apramycin. Different amounts of rebeccamycin (dissolved in acetone) were added to paper discs placed on this pre-seeded medium. The plates were left at 4° C. for an hour to allow diffusion of the rebeccamycin solution, and then they were incubated at 28° C. for 4 days.

[1] = tested on: several tumors implanted in mice; details: cited from earlier work
Streptococcus faecalis = details: cited from earlier work
S. albus J1074/14E8 = assay: Paper disc growth inhibition by exogenously added rebeccamycin, strain with cosmid 14E8; type: cell-based, Streptomyces albus; details: Bennett's agar, 28° C. for 4 days
Method: as §1

Staphylococcus aureus = details: cited from earlier work
several tumor cell lines = details: cited from earlier work

## CO[C@H]1[C@H](O)[C@@H](O)[C@H](n2c3c(Cl)cccc3c3c4c(c5c6cccc(Cl)c6[nH]c5c32)C(=O)NC4=O)O[C@@H]1CO [Rebeccamycin]
Micrococcus luteus
  antibacterial activity: antibacterial activity
S. albus J1074
  inhibition of growth of Streptomyces spp. including S. albus J1074: weak inhibition of growth
S. albus J1074/pKC505
  growth of S. albus J1074/pKC505: totally inhibited
[1]
  antitumor activity in vivo: antitumor activity
Streptococcus faecalis
  antibacterial activity: antibacterial activity
S. albus J1074/14E8; 100 μg rebeccamycin on paper disc
  growth of S. albus J1074/14E8: fully resistant
S. albus J1074/14E8; 200 μg rebeccamycin on paper disc
  growth of S. albus J1074/14E8: fully resistant
Staphylococcus aureus
  antibacterial activity: antibacterial activity
Several tumor cell lines
  antitumor activity in vitro: antitumor activity
